Patent US8541407B2 (ArQule, Inc., priority 2010, dated 2013)

Target: AKT1 (Homo sapiens (Human), UniProt P31749)
Experiment: Inactive Akt Alpha Screen Assay
Conditions: non *labeled: Akt Alpha Screen assay; read-out: AKT1 biochemical assay, IC50
Method in brief: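 AKT1 activated in situ by PDK1, MAPKAPK2, lipid vesicles and ATP, then phosphorylating biotinylated crosstide for 30 min at room temperature. Stopped with 10 mM EDTA; phosphopeptide detected by AlphaScreen using phospho-AKT substrate antibody (1:350), Protein A acceptor and streptavidin donor beads, 90 min dark, ex 640/em 570 nm.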

AKT1, sequence (P31749 whole entry): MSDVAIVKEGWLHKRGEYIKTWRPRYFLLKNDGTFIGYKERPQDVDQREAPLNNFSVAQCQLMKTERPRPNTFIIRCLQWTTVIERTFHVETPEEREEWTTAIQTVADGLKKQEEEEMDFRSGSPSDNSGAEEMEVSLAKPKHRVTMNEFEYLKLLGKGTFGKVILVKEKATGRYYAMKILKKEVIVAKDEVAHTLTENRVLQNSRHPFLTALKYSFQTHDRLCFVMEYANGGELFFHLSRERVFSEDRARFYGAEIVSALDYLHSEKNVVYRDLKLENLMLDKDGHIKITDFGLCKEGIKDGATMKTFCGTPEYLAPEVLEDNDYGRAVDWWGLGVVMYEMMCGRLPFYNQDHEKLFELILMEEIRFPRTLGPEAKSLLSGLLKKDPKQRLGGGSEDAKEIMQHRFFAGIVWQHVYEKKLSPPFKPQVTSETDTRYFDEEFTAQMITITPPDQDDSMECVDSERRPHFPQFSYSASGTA

SMILES | IC50
O=c1[nH]c2ccccc2n1C1CCN(Cc2ccc(-c3nnc4n3-c3cccnc3Nc3ccccc3-4)cc2)CC1 [Example 24, 1-(1-(4-(9H-benzo[f]pyrido[2,3-b][1,2,4]triazolo[4,3-d][1,4]diazepin-3-yl)benzyl)piperidin-4-yl)-1H-benzo[d]imidazol-2(3H)-one] | 83 nM
CN(C)c1ccc(C(=O)Nc2ccc(-c3nnc4n3-c3cccnc3Nc3ccccc3-4)cc2)cc1 [Example 45, N-(4-(9H-benzo[f]pyrido[2,3-b][1,2,4]triazolo[4,3-d][1,4]diazepin-3-yl)phenyl)-4-(dimethylamino)benzamide] | 1900 nM
O=C(Nc1ccccc1)NC1(c2ccc(-c3nnc4n3-c3cccnc3Nc3ccccc3-4)cc2)CCC1 [Example 194, 1-(1-(4-(9H-benzo[f]pyrido[2,3-b][1,2,4]triazolo[4,3-d][1,4]diazepin-3-yl)phenyl)cyclobutyl)-3-phenylurea] | 1200 nM
COC(=O)c1sccc1S(=O)(=O)NC1CCN(Cc2ccc(-c3nnc4n3-c3cccnc3Nc3ccccc3-4)cc2)CC1 [Example 145, methyl 3-(N-(1-(4-(9H-benzo[f]pyrido[2,3-b][1,2,4]triazolo[4,3-d][1,4]diazepin-3-yl)benzyl)piperidin-4-yl)sulfamoyl)thiophene-2-carboxylate] | 790 nM
O=C1NCN(c2ccccc2)C12CCN(Cc1ccc(-c3nnc4n3-c3cccnc3Nc3ccccc3-4)cc1)CC2 [Example 162, 8-(4-(9H-benzo[f]pyrido[2,3-b][1,2,4]triazolo[4,3-d][1,4]diazepin-3-yl)benzyl)-1-phenyl-1,3,8-triazaspiro[4.5]decan-4-one] | 950 nM
O=S(=O)(NCc1ccc(-c2nnc3n2-c2cccnc2Nc2ccccc2-3)cc1)c1ccc(Cl)cc1 [Example 119, N-(4-(9H-benzo[f]pyrido[2,3-b][1,2,4]triazolo[4,3-d][1,4]diazepin-3-yl)benzyl)-4-chlorobenzenesulfonamide] | 220 nM
O=C(Nc1ccc(-c2nnc3n2-c2cccnc2Nc2ccccc2-3)cc1)c1ccc2ccccc2c1 [Example 28, N-(4-(9H-benzo[f]pyrido[2,3-b][1,2,4]triazolo[4,3-d][1,4]diazepin-3-yl)phenyl)-2-naphthamide] | 680 nM
c1ccc(CNCc2ccc(-c3nnc4n3-c3cccnc3Nc3ccccc3-4)cc2)cc1 [Example 66, N-(4-(9H-benzo[f]pyrido[2,3-b][1,2,4]triazolo[4,3-d][1,4]diazepin-3-yl)benzyl)-1-phenylmethanamine] | 1900 nM
O=C(Nc1ccc(-c2nnc3n2-c2cccnc2Nc2ccccc2-3)cc1)c1ccc2c(c1)OCO2 [Example 47, N-(4-(9H-benzo[f]pyrido[2,3-b][1,2,4]triazolo[4,3-d][1,4]diazepin-3-yl)phenyl)benzo[d][1,3]dioxole-5-carboxamide] | 53 nM
O=C(Nc1ccc(-c2nnc3n2-c2cccnc2Nc2ccccc2-3)cc1)c1cnc2ccccc2n1 [Example 55, N-(4-(9H-benzo[f]pyrido[2,3-b][1,2,4]triazolo[4,3-d][1,4]diazepin-3-yl)phenyl)quinoxaline-2-carboxamide] | 160 nM
O=C(Cc1ccccc1)Nc1ccc(-c2nnc3n2-c2cccnc2Nc2ccccc2-3)cc1 [Example 49, N-(4-(9H-benzo[f]pyrido[2,3-b][1,2,4]triazolo[4,3-d][1,4]diazepin-3-yl)phenyl)-2-phenylacetamide] | 240 nM
c1ccc(-c2nnc3n2-c2ccccc2Nc2ccccc2-3)cc1 [Example 20, 3-phenyl-9H-dibenzo[b,f][1,2,4]triazolo[4,3-d][1,4]diazepine] | 1900 nM
CC(C)(C)OC(=O)NC1(c2ccc(-c3nnc4n3-c3cccnc3Nc3ccccc3-4)cc2)CC1 [Example 221, tert-butyl (1-(4-(9H-benzo[f]pyrido[2,3-b][1,2,4]triazolo[4,3-d][1,4]diazepin-3-yl)phenyl)cyclopropyl)carbamate] | 1400 nM

Continued, values first:

IC50 | SMILES
4300 nM | c1ccc2c(c1)Nc1ncccc1-n1c(-c3ccc(CN4CCCC4)cc3)nnc1-2 [Example 65, 3-(4-(pyrrolidin-1-ylmethyl)phenyl)-9H-benzo[f]pyrido[2,3-b][1,2,4]triazolo[4,3-d][1,4]diazepine]
1800 nM | O=S(=O)(Cc1ccccc1)NC1CCN(Cc2ccc(-c3nnc4n3-c3cccnc3Nc3ccccc3-4)cc2)CC1 [Example 152, N-(1-(4-(9H-benzo[f]pyrido[2,3-b][1,2,4]triazolo[4,3-d][1,4]diazepin-3-yl)benzyl)piperidin-4-yl)-1-phenylmethanesulfonamide]
8000 nM | CN(C)C(=O)CN1CCN(Cc2ccc(-c3nnc4n3-c3cccnc3Nc3ccccc3-4)cc2)CC1 [Example 72, 2-(4-(4-(9H-benzo[f]pyrido[2,3-b][1,2,4]triazolo[4,3-d][1,4]diazepin-3-yl)benzyl)piperazin-1-yl)-N,N-dimethylacetamide]
3400 nM | CC(=O)c1ccc(S(=O)(=O)NC2CCN(Cc3ccc(-c4nnc5n4-c4cccnc4Nc4ccccc4-5)cc3)CC2)cc1 [Example 155, N-(1-(4-(9H-benzo[f]pyrido[2,3-b][1,2,4]triazolo[4,3-d][1,4]diazepin-3-yl)benzyl)piperidin-4-yl)-4-acetylbenzenesulfonamide]
2900 nM | Cc1cc(C(=O)N2CCN(Cc3ccc(-c4nnc5n4-c4cccnc4Nc4ccccc4-5)cc3)CC2)no1 [Example 142, (4-(4-(9H-benzo[f]pyrido[2,3-b][1,2,4]triazolo[4,3-d][1,4]diazepin-3-yl)benzyl)piperazin-1-yl)(5-methylisoxazol-3-yl)methanone]
1000 nM | OCc1ccc(-c2nnc3n2-c2cccnc2Nc2ccccc2-3)cc1 [Example 23, (4-(9H-benzo[f]pyrido[2,3-b][1,2,4]triazolo[4,3-d][1,4]diazepin-3-yl)phenyl)methanol]
660 nM | c1ccc(-c2nnc(C3CCN(Cc4ccc(-c5nnc6n5-c5cccnc5Nc5ccccc5-6)cc4)CC3)o2)cc1 [Example 207, 2-(1-(4-(9H-benzo[f]pyrido[2,3-b][1,2,4]triazolo[4,3-d][1,4]diazepin-3-yl)benzyl)piperidin-4-yl)-5-phenyl-1,3,4-oxadiazole]
440 nM | O=C(Nc1ccccc1F)NC1CCN(Cc2ccc(-c3nnc4n3-c3cccnc3Nc3ccccc3-4)cc2)CC1 [Example 167, 1-(1-(4-(9H-benzo[f]pyrido[2,3-b][1,2,4]triazolo[4,3-d][1,4]diazepin-3-yl)benzyl)piperidin-4-yl)-3-(2-fluorophenyl)urea]
3000 nM | COc1cccc(S(=O)(=O)NC2CCN(Cc3ccc(-c4nnc5n4-c4cccnc4Nc4ccccc4-5)cc3)CC2)c1 [Example 150, N-(1-(4-(9H-benzo[f]pyrido[2,3-b][1,2,4]triazolo[4,3-d][1,4]diazepin-3-yl)benzyl)piperidin-4-yl)-3-methoxybenzenesulfonamide]
3400 nM | CC(=O)NC1CCN(Cc2ccc(-c3nnc4n3-c3cccnc3Nc3ccccc3-4)cc2)C1 (stereo not drawn) [Example 86, N-(1-(4-(9H-benzo[f]pyrido[2,3-b][1,2,4]triazolo[4,3-d][1,4]diazepin-3-yl)benzyl)pyrrolidin-3-yl)acetamide]
1300 nM | Cc1cccc(C(=O)N2CCN(Cc3ccc(-c4nnc5n4-c4cccnc4Nc4ccccc4-5)cc3)CC2)c1 [Example 136, (4-(4-(9H-benzo[f]pyrido[2,3-b][1,2,4]triazolo[4,3-d][1,4]diazepin-3-yl)benzyl)piperazin-1-yl)(m-tolyl)methanone]
